These results are taken from patent US11135290B2, “Fucosyllactose as breast milk identical non-digestible oligosaccharide with new functional benefit” (N.V. Nutricia, priority 2009, dated 2021).

Holding throughout (format): in vivo, C57BL/6 mice
In one experiment the test system is YAC-1 target cells. As to the kind of experiment: NK cell cytotoxicity in spleen cell suspensions, 51Cr release assay. The conditions noted are these: mouse splenocytes, dietary supplementation. From the text: (§1) 6-8 Weeks old female C57BL/6 mice (Charles River) received semi-purified AIN-93G-based diets (Research Diet Service, Wijk bij Duurstede, the Netherlands), comprising
1) 2 wt % beta-galacto-oligosaccharide (GOS; source Vivinal GOS, Borculo Domo), fructo-oligosaccharide (FOS; source RaftilineHP, Orafti) and galacturonic acid oligosaccharide (Source AOS) in a 9:1:1.1 ratio. AOS are produced from pectin (Stidzucker AG, Mannheim, Germany), with a DP of 1-20. It consists of approximately 75% galacturonic acid oligomers, based on total weight;
2) 1 wt % lactoneotetraose (LNnT),
3) 1 wt % 3′-sialyl lactose (3′-SL), or
4) 1 wt % 2′-fucosyllactose (2′-FL).
(§2) All groups were compared to the unsupplemented control diet. Dietary supplementation started 14 days before the first vaccination and lasted until the end of the experiment, 31 days after the first vaccination.
Vaccination experiments were performed using Influvac (Solvay Pharmaceuticals, Weesp, the Netherlands) from season 2005/2006. […] The percentage of specific ^51Cr release was calculated as the percentage of specific lysis=(experimental release−spontaneous release)/(total detergent release−spontaneous release)×100. […]
(§3) Statistical analysis was performed using GraphPadPrism software. Statistical differences between test and control groups were analysed by ANOVA and post hoc Dunnett's test if multiple groups were compared to a single (control) group. […]

In experiment [1] the test system is regulatory T cells (Treg). Description: Percentage of regulatory T cells (Treg) by flow cytometry. The conditions noted are these: dietary supplementation, vaccinated mice.
Protocol: All groups were compared to the unsupplemented control diet. Dietary supplementation started 14 days before the first vaccination and lasted until the end of the experiment, 31 days after the first vaccination. […]
The percentage of regulatory T cells (Treg) was determined by flow cytometry (FACSCalibur) using allophycocyanin (APC-)labelled anti-mouse CD3 mAb, Pe-Cy5-labeled anti-mouse CD4 mAb and phycoerythrin (PE)-labelled anti-mouse CD25 mAb in combination with intracellular staining of fluorescein-isotiocyanate (FITC)-labelled Foxp3 mAb, according to the instructions offered by the manufactures (eBiosciences, San Diego, Calif.).
Another experiment concerns DTH response. Description: DTH response after Influvac vaccination. As to conditions: dietary supplementation, vaccinated mice; TH1-dependent parameter. The protocol: as §1, §2
Vaccination experiments were performed using Influvac (Solvay Pharmaceuticals, Weesp, the Netherlands) from season 2005/2006. The mice received a primary vaccination and a booster vaccination, consisting of a subcutaneous (sc) injection of a 1:1 mix of vaccine and adjuvant in a total volume of 100 μl. The booster vaccination was given at 21 days after the primary vaccination. The experiments ended 10 days after booster vaccination. Blood samples were taken at the end of the experiment. […] The percentage of specific ^51Cr release was calculated as the percentage of specific lysis=(experimental release−spontaneous release)/(total detergent release−spontaneous release)×100. […]
as §3

Marks after values point to notes of the source that are not given here.

In the case of lactoneotetraose [LNnT], the “NK cell activity, % lysis At E:T ratio 1:50” value with YAC-1 target cells is 2.14 % lysis. Moreover, the “Treg percentage (s.e.m.)” value in experiment [1] is given as 3.2 (0.2) percentage. Further, the “DTH response compared with control-fed animals” value with DTH response is “significant increase”.
For the compound `CC(=O)N[C@H]1[C@H]([C@H](O)[C@H](O)CO)O[C@@](O[C@H]2[C@@H](O)[C@@H](CO)O[C@@H](O[C@H]3[C@H](O)[C@@H](O)C(O)O[C@@H]3CO)[C@@H]2O)(C(=O)O)C[C@@H]1O` (stereo partly drawn) [3′-SL, 3′-sialyl lactose], the “NK cell activity, % lysis At E:T ratio 1:50” value in the experiment with YAC-1 target cells worked out at 1.93 % lysis. Also, the “Treg percentage (s.e.m.)” value in experiment [1] is 2.8 (0.2)* percentage. Further, the “DTH response compared with control-fed animals” value in the experiment with DTH response is on record as “significant increase”.
